In patent US7622481B2, “Antibacterial compounds” (priority 2003, dated 2009):
Structures can show the parent of a compound that is named as a salt. Where two headings read alike, the source gives them in different places.

Test: MIC of test compounds against various organisms
Type: cell-based
Method: The MIC (μg/ml) of test compounds against various organisms was determined including:
S. epidermidis CL7, S. aureus WCUH29, S. pneumoniae 1629, S. pyogenes CN10, H. influenzae ATCC 49247, E. faecalis 2, M. catarrhalis Ravasio, E. coli 7623.

[1] = versus all these organisms (panel of 8 strains), read-out: MIC
[2] = versus at least one of these organisms (panel of 8 strains), read-out: MIC
[3] = versus some of these organisms (panel of 8 strains), read-out: MIC

Structure (SMILES)	MIC [1]	also measured
Cn1ccc2cccc(NC(=O)[C@]3(O)CC[C@@H](NCc4ccc5c(n4)NC(=O)CS5)CC3)c2c1=O [Example 26, 1-Hydroxy-t-4-[(3-oxo-3,4-dihydro-2H-pyrido[3,2-b][1,4]thiazin-6-ylmethyl)-amino]-r-cyclohexanecarboxylic acid (2-methyl-1-oxo-1,2-dihydro-isoquinolin-8-yl)-amide hydrochloride]	≤ 2 µg/mL	–
O=C1CSc2ccc(CN[C@H]3CC[C@](O)(C(=O)Nc4ccnc5c4OCCO5)CC3)nc2N1 [Example 2, 1-Hydroxy-t-4-[(3-oxo-3,4-dihydro-2H-pyrido[3,2-b][1,4]thiazin-6-ylmethyl)-amino]-r-cyclohexanecarboxylic acid (2,3-dibydro-[1,4]dioxino[2,3-b]pyridin-8-yl)-amide dihydrochloride]	–	MIC [2]: ≤ 16 µg/mL
O=C1COc2ccc(CN[C@H]3CC[C@](O)(C(=O)Nc4ccnc5ccncc45)CC3)nc2N1 [Example 29, 1-Hydroxy-t-4-[(3-oxo-3,4-dihydro-2H-pyrido[3,2-b][1,4]oxazin-6-ylmethyl)-amino]-r-cyclohexanecarboxylic acid [1,6]naphthyridin-4-ylamide]	–	MIC [3]: ≤ 2 µg/mL
COc1ccc2nccc(NC(=O)[C@@H]3CC[C@@H](NCc4nc5c(cc4F)SCC(=O)N5)[C@@H](F)C3)c2n1 [Example 32, (1R,3S,4R)-3-Fluoro-4[(7-fluoro-3-oxo-3,4-dihydro-2H-pyrido[3,2-b][1,4]thiazin-6-ylmethyl)-amino]-cyclohexanecarboxylic acid (6-methoxy-[1,5]naphthyridin-4-yl)-amide dihydrochloride]	–	MIC: ≤ 2 µg/mL
COc1ccc2cccc(CCC3(O)CCC(NCc4ccc5c(n4)NC(=O)CS5)CC3)c2n1 (centres unmarked) [Example 8, 6-({4-Hydroxy-4-[2-(2-methoxy-quinolin-8-yl)-ethyl]-cyclohexylamino}-methyl)-4H-pyrido[3,2-b][1,4]thiazin-3-one]	≤ 2 µg/mL	–
Cc1cnc2cccc(NC(=O)[C@]3(O)CC[C@@H](NCc4ccc5c(n4)NC(=O)CS5)CC3)c2n1 [Example 25, 1-Hydroxy-t-4-[(3-oxo-3,4-dihydro-2H-pyrido[3,2-b][1,4]thiazin-6-ylmethyl)-amino]-r-cyclohexanecarboxylic acid (3-methyl-quinoxalin-5-yl)-amide dihydrochloride]	≤ 2 µg/mL	–
O=C1CSc2ccc(CN[C@H]3CC[C@](O)(C(=O)Nc4ccnc5ccsc45)CC3)nc2N1 [Example 1, 1 -Hydroxy-t-4-[(3-oxo-3,4-dihydro-2H-pyrido[3,2-b][1 ,4]thiazin-6-ylmethyl) -amino]-r-cyclohexanecarboxylic acid thieno[3,2-b]pyridin-7-ylamide dihydrochioride]	≤ 8 µg/mL	–
Cc1cnc2c(NC(=O)[C@]3(O)CC[C@@H](NCc4ccc5c(n4)NC(=O)CS5)CC3)cccc2n1 [Example 30, 1-Hydroxy-t-4-[(3-oxo-3,4-dihydro-2H-pyrido[3,2-b][1,4]thiazin-6-ylmethyl)-amino]-r-cyclohexanecarboxylic acid (2-methyl-quinoxalin-5-yl)-amide dihydrochloride]	–	MIC [2]: ≤ 16 µg/mL
CC1CNc2cccc(NC(=O)[C@]3(O)CC[C@@H](NCc4ccc5c(n4)NC(=O)CO5)CC3)c2N1 (some centres unmarked) [Example 33, 1-Hydroxy-t-4-[(3-oxo-3,4-dihydro-2H-pyrido[3,2-b][1,4]oxazin-6-ylmethyl)-amino]-c-cyclohexanecarboxylic acid (3-methyl-1,2,3,4-tetrahydro-quinoxalin-5-yl)-amide dihydrochloride]	–	MIC [3]: ≤ 2 µg/mL
N#Cc1ccc2nccc(NC(=O)[C@]3(O)CC[C@@H](NCc4ccc5c(n4)NC(=O)CS5)CC3)c2c1 [Example 40, 1-Hydroxy-t-4-[(3-oxo-3,4-dihydro-2H-pyrido[3,2-b][1,4]thiazin-6-ylmethyl)-amino]-r-cyclohexanecarboxylic acid (6-cyano-quinolin-4-yl)-amide dihydrochloride]	≤ 2 µg/mL	–
O=C1CSc2ccc(CN[C@H]3CC[C@H](C(=O)Nc4cccc5cnccc45)CC3)cc2N1 [Example 4, trans-4-[(3-Oxo-3,4-dihydro-2H-benzo[1,4]thiazin-6-ylmethyl)-amino]-cyclohexanecarboxylic acid isoquinolin-5-ylamide]	–	MIC [2]: ≤ 16 µg/mL
CO[C@@H]1C[C@H](C(=O)Nc2cccc3ccc(C)nc23)CC[C@H]1NCc1cc2c(cn1)OCCO2 [Example 39, (1R,3R,4R)-4-[(2,3-Dihydro-[1,4]dioxino[2,3-c]pyridin-7-ylmethyl)-amino]-3-methoxy-cyclohexanecarboxylic acid (2-methyl-quinolin-8-yl)-amide dihydrochloride]	–	MIC: ≤ 2 µg/mL
N#Cc1ccc2cccc(NC(=O)[C@H]3CC[C@H](NCc4ccc5c(n4)NC(=O)CO5)[C@H](O)C3)c2n1 [Example 13, (1S,3R,4S)-3-Hydroxy-4-[(3-oxo-3,4-dihydro-2H-pyrido[3,2-b][1,4]oxazin-6-ylmethyl)-amino]-cyclohexanecarboxylic acid (2-cyano-quinolin-8-yl)-amide hydrochloride]	≤ 2 µg/mL	–
COc1ccc2cccc(CC[C@]3(O)CC[C@@H](NCc4cnc5c(c4)NC(=O)CS5)CC3)c2n1 [Example 21, 7-({r-4-Hydroxy-4-[2-(2-methoxy-quinolin-8-yl)-ethyl]-c-cyclohexylamino}-methyl)-1H-pyrido[2,3-b][1,4]thiazin-2-one]	≤ 2 µg/mL	–
COc1ccc2nccc(NC(=O)[C@@H]3CC[C@@H](NCc4ccc5c(n4)NC(=O)CO5)[C@@H](F)C3)c2n1 [Example 31, (1R,3S,4R)-3-Fluoro-4-[(3-oxo-3,4-dihydro-2H-pyrido[3,2-b][1,4]oxazin-6-ylmethyl)-amino]-cyclohexanecarboxylic acid (6-methoxy-[1,5]naphthyridin-4-yl)-amide dihydrochloride]	–	MIC: ≤ 2 µg/mL
COc1cccc2nccc(NC(=O)[C@]3(O)CC[C@@H](NCc4ccc5c(n4)NC(=O)CS5)CC3)c12 [Example 28, 1-Hydroxy-t-4-[(3-oxo-3,4-dihydro-2H-pyrido[3,2-b][1,4]thiazin-6-ylmethyl)-amino]-r-cyclohexanecarboxylic acid (5-methoxy-quinolin-4-yl)-amide dihydrochloride]	≤ 8 µg/mL	–
O=C1CSc2ccc(CN[C@H]3CC[C@H](C(=O)Nc4ccnc5ccccc45)CC3)nc2N1 [Example 3, trans-4-[(3-Oxo-3,4-dihydro-2H-pyrido[3,2-b][1,4]thiazin-6-ylmethyl)-amino]-cyclohexanecarboxylic acid quinolin-4-ylamide dihydrochloride]	–	MIC: ≤ 8 µg/mL
N#Cc1ccc2cccc(NC(=O)[C@@H]3CC[C@@H](NCc4ccc5c(n4)NC(=O)CS5)[C@H](O)C3)c2n1 [Example 14, (1R,3R,4R)-3-Hydroxy-4-[(3-oxo-3,4-dihydro-2H-pyrido[3,2-b][1,4]thiazin-6-ylmethyl)-amino]-cyclohexanecarboxylic acid (2-cyano-quinolin-8-yl)-amide hydrochloride]	≤ 2 µg/mL	–
Cc1cnc2cccc(NC(=O)[C@]3(O)CC[C@@H](NCc4cc5c(cn4)OCCO5)CC3)c2n1 [Example 42, t-4-[(2,3-Dihydro[1,4]dioxino[2,3-c]pyridin-7-ylmethyl)amino]-1-hydroxy-N-(3-methyl-5-quinoxalinyl)-r-cyclohexanecarboxamide dihydrochloride]	≤ 8 µg/mL	–
COc1ccc2cccc(NC(=O)[C@]3(O)CC[C@@H](NCc4nc5c(cc4Cl)SCC(=O)N5)CC3)c2n1 [Example 24, t-4-[(7-Chloro-3-oxo-3,4-dihydro-2H-pyrido[3,2-b][1,4]thiazin-6-ylmethyl)-amino]-1-hydroxy-r-cyclohexanecarboxylic acid (2-methoxy-quinolin-8-yl)-amide dihydrochloride]	–	MIC [3]: ≤ 2 µg/mL
N#Cc1ccc2cccc(NC(=O)[C@H]3CC[C@H](NCc4ccc5c(n4)NC(=O)CS5)[C@H](O)C3)c2n1 [Example 12, (1 S,3R,4S)-3-Hydroxy-4-[(3-oxo-3,4-dihydro-2H-pyrido[3,2-b][1,4]thiazin-6-ylmethyl)-amino]-cyclohexanecarboxylic acid (2-cyano-quinolin-8-yl)-amide hydrochloride]	≤ 2 µg/mL	–

The next lines start with results.

MIC [1]	Structure (SMILES)	also measured
≤ 2 µg/mL	COc1ccc2cccc(NC(=O)[C@]3(O)CC[C@@H](NCc4ccc5c(n4)NC(=O)CO5)CC3)c2n1 [Example 17, 1-Hydroxy-t-4-[(3-oxo-3,4-dihydro-2H-pyrido[3,2-b][1,4]oxazin-6 ylmethyl)-amino]-r-cyclohexanecarboxylic acid (2-methoxy-quinolin-8-yl)-amide]	–
≤ 2 µg/mL	COc1ccc2cccc(CC[C@]3(O)CC[C@@H](NCc4ccc5c(n4)NC(=O)CO5)CC3)c2n1 [Example 7, 6-({4-Hydroxy-4-[2-(2-methoxy-quinolin-8-yl)-ethyl]-cyclohexylamino}-methyl)-4H-pyrido[3,2-b][1,4]oxazin-3-one]	–
≤ 2 µg/mL	Cc1ccc2cccc(NC(=O)[C@]3(O)CC[C@@H](NCc4ccc5c(n4)NC(=O)CO5)CC3)c2n1 [Example 18, 1-Hydroxy-t-4-[(3-oxo-3,4-dihydro-2H-pyrido[3,2-b][1,4]oxazin-6-ylmethyl)-amino]-r-cyclohexanecarboxylic acid (2-methyl-quinolin-8-yl)-amide dihydrochloride]	–
≤ 2 µg/mL	Cc1ccc2cccc(NC(=O)[C@]3(O)CC[C@@H](NCc4ccc5c(n4)NC(=O)CS5)CC3)c2n1 [Example 19, 1-Hydroxy-t-4-[(3-oxo-3,4-dihydro-2H-pyrido[3,2-b][1,4]thiazin-6-ylmethyl)-amino]-r-cyclohexanecarboxylic acid (2-methyl-quinolin-8-yl)-amide dihydrochloride]	–
≤ 8 µg/mL	COc1ccc2cccc(NC(=O)[C@]3(O)CC[C@@H](NCc4nc5c(cc4F)SCC(=O)N5)CC3)c2n1 [Example 23, t-4-[(7-Fluoro-3-oxo-3,4-dihydro-2H-pyrido[3,2-b][1,4]thiazin-6-ylmethyl)-amino]-1-hydroxy-r-cyclohexanecarboxylic acid (2-methoxy-quinolin-8-yl)-amide dihydrochloride]	–
